Measurements published in patent publication US20220016241A1, “COMPOSITIONS AND METHODS FOR REDUCING ANTIGEN-SPECIFIC IMMUNOGENICITY” (The Research Foundation for The State University of New York, priority 2013, published 2022).

Experiments:
anti-FVIII titers = experiment: Effect of OPLS on in-vivo immunogenicity of FVIII after sc administration; parameters: species or system HA mice; details: days 1, 8, 10, 12
Method: Effect of OPLS on the immunogenicity of FVIII after SC administration in-vivo: 21 HA mice between 6 and 8 weeks of age were divided into 3 groups: group one received 1 ug FVIII SC in the abdominal region. Group two received 1 μg FVIII plus 0.4 mg OPLS SC in the abdominal region and group 3 received 1 μg FVIII plus 5 mg OPLS sc in the abdominal region. Incubation of FVIII with OPLS at 37° C. for 30 minutes ensures complexation, but for this example, OPLS and FVIII were combined at the desired concentrations at room temperature (22° C.) and immediately administered (within 1 minute). This treatment was given one day 1, 8, 10 and 12. Three days after the last injection the animals were sacrificed. Blood was centrifuged at 7500 rpm for 5 min at 4 degrees Celsius. Plasma was then removed and stored at −80 degrees Celsius until analysis.
Total titers were determined by classical standard ELISA. Anti-FVIII antibody (ESH8) was used as a control. Statistics was done on the arithmetic mean of the log transformed data, graphs are reported as geometric means. Non-responders were given the value of the plate specific factor for uniformity. […]
Statistics: Non-parametric one-way ANOVA with Tukey's post hoc analysis was used for the analysis of titer values where appropriate. Student t-test was used for comparing mean intensity of fluorescence (MIF) for flow cytomerty data. […]

TNF-α = experiment: Cytokine profile of BMDCs in vitro, TNF-α ELISA; type: cell-based, HA mice; details: 1 μg/ml FVIII with 50 mM OPLS, 48 hours, n=4
Method: Generation of bone marrow derived dendritic cells (BMDC): Bone marrow was isolated from 6 to 8 week old naïve HA. Briefly, bone marrow was cultured in RPMI media supplemented with […] (low endotoxin), 2-mercaptoethanol, Pen/Strep and […] GMCSF. Media was changed on days 3, 6 and 8 of culture and DCs were used on day 9. BMDC are then harvested and used as needed. To verify the differentiation of bone marrow cells into DCs, CD11c surface expression was confirmed by flow cytometry using anti-CD11c-FITC antibody with appropriate isotope controls.
Effects of OPLS on cytokine profile of BMDCs in vitro: The effects of OPLS on cytokine secretion by dendritic cells were investigated. On day 9 BMDCs, generated as above, were treated with FVIII as an antigen in the presence of increasing dose of OPLS. Changes in production of pro-inflammatory cytokines TNF-α and IL12p70 as well as the regulatory cytokine TGF-β were monitored as a function of dose. BMDCs were exposed to 1 μg/ml FVIII with increasing dose of OPLS (0, 0.5, 1, 10, 25, 50 mM). 1 M stock of OPLS was prepared by adding the appropriate amount of OPLS directly to RPMI media, and pH was adjusted using sterile 3N and 1N NaOH. […] TGF-β, TNF-α and IL-12p70 concentrations were determined using standard ELISA (R&D System Inc. Minneapolis, Minn., USA or Invitrogen […], Calif.).

anti-GAA total titers = experiment: OPLS-GAA sequential administration study; type: in vivo, Mice; details: for Total titers (ELISA), week 11 after re-challenge: rechallenge 4 weekly 1 μg rhGAA; for Total titers (ELISA), week 6: 4 weekly sc
Method: This examples describes OPLS-GAA sequential administration study. To determine if OPLS can exert its immunomodulatory effects on the immune response to GAA when the two are administered in separate spaced injections, at the same injection site the following experiments were carried out. Mice (n=6 animals/group) were immunized with 4 weekly sc injections as follows. One group of animals received one single combined injection of 5 mg OPLS and 1 μg rhGAA(100 μl volume). Recombinant human GAA was produced by Creative Biomart. The second group received one injection of 5 mg OPLS (100 μl volume) then after a 5 minute wait they received a second injection of 1 μg rhGAA in sterile TRIS (100 μl volume) in the same injection site. The final control group received one injection of sterile TRIS (100 μl volume) then after a 5 minute wait they received a second injection of 1 μg rhGAA in sterile TRIS (100 μl volume) in the same injection site. After a two week rest period a saphenous blood sample was collected. All of the mice were then rechallenged with 4 weekly injections of 1 μg of rhGAA in 100 μl sterile TRIS (one single injection). Analysis was done by ELISA for total titers. The mean free GAA after 6 weeks was 3135±910, When co-administered, the GAA was 787±155, and when administered separately (sequentially), the GAA was 926±202 (FIG. 26). After re-challenge, terminal sampling was done at week 11. The mean free GAA after 11 weeks was 8775±2363, When co-administered, the GAA was 895±335, and when administered separately (sequentially), the GAA was 1884±761. […] Either administration method was able to induce a hypo-responsiveness towards GAA.

[1] = Plasma chemistry markers after 28 daily injections of OPLS; type: in vivo, CD-1 mice; details: up to highest dose, 1 day after dosing
Source text: FIG. 21. Effect of 28 daily injections of a range of OPLS doses on plasma chemistry markers of CD-1 mice. Samples were collected from animals 1 day after the termination of dosing.

[2] = Plasma creatine kinase and injection site after 28 daily s.c. injections of OPLS; type: in vivo, CD-1 mice
Source text: FIG. 22. Plasma Creatine Kinase (CK: an enzyme with high expression in myocytes, elevation of plasma CK is an indication of damage to muscle tissue) activity levels after 28 daily s.c. injections of OPLS to CD-1 mice.

[3] = Safety of repeated high doses of OPLS; type: in vivo, rodent and primate models; details: up to 950 mg
Method: Given that the methods disclosed herein appear to work best with doses of OPLS that equal or exceed 5 mg, it is important to understand the safety and toxicity of high doses of OPLS.

SMILES: N[C@@H](COP(=O)(O)O)C(=O)O [OPLS, O-Phospho-L-Serine]
- Total anti-FVIII titer (anti-FVIII titers; 1 μg FVIII with high dose OPLS (5 mg/injection) sc, geometric mean±SD): 5.34±5.8 arbitrary units
- Total anti-FVIII titer (anti-FVIII titers; 1 μg FVIII with low dose OPLS (0.4 mg/injection) sc, not statistically significant vs FVIII alone): 137±1.4 arbitrary titer units
- TNF-α production by BMDC (TNF-α): substantial reduction
- Total titers (ELISA), week 11 after re-challenge (anti-GAA total titers; co-administered with 5 mg OPLS): 895±335
- Total titers (ELISA), week 6 (anti-GAA total titers; co-administered: single combined injection 5 mg OPLS and 1 μg rhGAA): 787±155
- Total titers (ELISA), week 11 after re-challenge (anti-GAA total titers; sequential, 5 mg OPLS 5 min before GAA): 1884±761
- Total titers (ELISA), week 6 (anti-GAA total titers; sequential: 5 mg OPLS then 1 μg rhGAA 5 min later, same site): 926±202
- Impact on renal and hepatic function (plasma chemistry markers) [1]: no impact
- Plasma creatine kinase activity vs vehicle [2]: No statistical significance
- Injection site pathology at necropsy ([2]; macroscopic evaluation): No visible injection site pathology
- Tolerability of repeated, high doses [3]: well tolerated
